Source: patent US8546343B2, “Aminoglycoside antibiotics targeting bacterial 16S ribosomal RNA” (Eidgenoessische Technische Hochschule Zurich, priority 2007, dated 2013)

What was measured:
Type in all cases: cell-based, Mycobacterium smegmatis
[1] = system: M. smegmatis ΔrrnB (bacterial ribosomes); assay: MIC, recombinant M. smegmatis with bacterial (wild-type) ribosomes; conditions: 72 h at 37° C.
Excerpt: (§1) The strain used for introduction/selection of mutational alterations was a genetically modified derivative of Mycobacterium smegmatis carrying a single functional chromosomal rRNA operon (Sander et al. Mol. Microbiol. 1996, 22: 841-848). This strain, termed M. smegmatis rrn^−, allowed for the selection of mutational rRNA gene alterations using a plasmid carrying the rRNA gene with the respective mutational alteration.)
(§2) The rRNA gene carried on the plasmid encodes either the complete rRNA operon (Prammananan et al. Antimicrob. Agents Chemother. 1999, 43: 447-453) or a non-functional rRNA gene fragment of approximately 1.0 kb (Pfister et al. Antimicrob. Agents Chemother. 2003, 47: 1496-1502). PCR-mutagenesis in vitro was used to generate the mutagenized rRNA gene fragment. In the case of a partial rRNA gene fragment the mutagenized rRNA gene fragment was cloned into vectors pMV261 or pMV361 (Sander et al. Mol. Microbiol. 2002, 46: 1295-1304; Pfister et al. Antimicrob. Agents Chemother. 2003, 47: 1496-1502) to result in vectors carrying a partial rRNA gene fragment of approximately 1.0 kb with the mutational alteration introduced. In the case of plasmids carrying the complete rRNA operon the mutagenized rRNA gene fragment obtained by PCR was cloned into vectors pMV361 rRNA or pMV261 rRNA using appropriate restriction sites (Prammananan et al. Antimicrob. Agents Chemother. 1999, 43: 447-453). Vectors pMV361 rRNA and pMV261 rRNA carried a complete copy of the rRNA operon from M. smegmatis (Sander et al. Mol. Microbiol. 1997, 26: 469-480). Introduction of mutations into the plasmid encoded rRNA was confirmed by sequencing.
(§3) The single rRNA allelic derivative of M. smegmatis, i.e. M. smegmatis rrn, was used for transformation of the plasmids. The strain was made electro-competent and transformed according to standard techniques and as described previously (Sander et al. Mol. Microbiol. 1997, 26: 469-484). Following primary selection, the plasmid-encoded mutational rRNA gene alteration was transferred into the single chromosomal rRNA operon by means of RecA-mediated homologous recombination (Prammananan at al. Antimicrob. Agents Chemother. 1999, 43: 447-453). Introduction of the mutational rRNA gene alteration into the single functional chromosomal rRNA operon by gene conversion was confirmed by sequence determination.
(§4) Ribosomal drug susceptibility was studied by determining the minimal inhibitory concentrations, as described in detail in Pfister et al. 2003 and 2005 (see above).
(§5) The recombinants carrying the respective mutational alterations in the functional rRNA operon were colony-purified and subjected to determinations of minimal inhibitory concentrations (MIC) to determine ribosomal drug susceptibility. Cultures from single colonies were grown in LB medium supplemented with 0.05% Tween 80 and used for MIC tests in a microtiter plate format. Starting cultures contained 200 μl of bacterial cells at an optical density of 0.025 at 600 nm, and the respective drug was added in twofold series of dilution.
(§6) Key nucleotides which distinguish the prokaryotic from the eukaryotic decoding site are 16S rRNA positions 1408 (bacterial ribosome: A, eukaryotic cytosolic ribosomes: G) and 1491 (bacterial ribosomes: G, eukaryotic cytosolic ribosomes: A, eukaryotic mitochondrial ribosome: C).

[2] = system: M. smegmatis ΔrrnB 1491C (16S rRNA position 1491 C, eukaryotic mitochondrial ribosome); assay: MIC, recombinant M. smegmatis with mutant ribosomes 1491C; conditions: M. smegmatis ΔrrnB 1491C mutant ribosomes; 72 h at 37° C.
Excerpt: as §1, §2, §3, §4, §5, §6

[3] = system: M. smegmatis ΔrrnB 1408G (16S rRNA position 1408 G, eukaryotic cytosolic ribosomes); assay: MIC, recombinant M. smegmatis with mutant ribosomes 1408G; conditions: M. smegmatis ΔrrnB 1408G mutant ribosomes; 72 h at 37° C.
Excerpt: as §1, §2, §3, §4, §5, §6

[4] = system: M. smegmatis ΔrrnB 1491A (16S rRNA position 1491 A, eukaryotic cytosolic ribosomes); assay: MIC, recombinant M. smegmatis with mutant ribosomes 1491A; conditions: M. smegmatis ΔrrnB 1491A mutant ribosomes; 72 h at 37° C.
Excerpt: as §1, §2, §3, §4, §5, §6

| SMILES | minimal inhibitory concentrations ΔrrnB [1] [µg/mL] | minimal inhibitory concentrations ΔrrnB 1491C [2] [µg/mL] | minimal inhibitory concentrations ΔrrnB 1408G [3] | minimal inhibitory concentrations ΔrrnB 1491A [4] [µg/mL] |
| --- | --- | --- | --- | --- |
| COc1ccc([C@@H]2OC[C@H]3O[C@H](O[C@H]4[C@H](O[C@@H]5O[C@H](CO)[C@@H](O[C@H]6O[C@@H](CN)[C@@H](O)[C@H](O)[C@H]6N)[C@H]5O)[C@@H](O)[C@H](N)C[C@@H]4N)[C@H](N)[C@@H](O)[C@@H]3O2)cc1 [Compound 5.2, 4′,6′-O-p-Methoxybenzylideneparomomycin] | 4 | >512 | >512 µg/mL | >512 |
| CC(=O)O.CC(=O)O.CC(=O)O.CC(=O)O.COc1cccc(C2OCC3OC(OC4C(N)CC(N)C(O)C4OC4OC(CO)C(OC5OC(CN)C(O)C(O)C5N)C4O)C(N)C(O)C3O2)c1 (stereo not shown) [Compound 5.3, 4′,6′-O-m-Methoxybenzylideneparomomycin tetraacetate] | 4 to 8 | >512 | 256 to 512 µg/mL | 512 |
| COc1ccccc1[C@@H]1OC[C@H]2O[C@H](O[C@H]3[C@H](O[C@@H]4O[C@H](CO)[C@@H](O[C@H]5O[C@@H](CN)[C@@H](O)[C@H](O)[C@H]5N)[C@H]4O)[C@@H](O)[C@H](N)C[C@@H]3N)[C@H](N)[C@@H](O)[C@@H]2O1 [Compound 5.4, 4,6′-O-o-Methoxybenzylideneparomomycin] | 8 to 16 | >512 | >512 µg/mL | >512 |
| COc1ccc(OC)c(C2OC[C@H]3O[C@H](O[C@H]4[C@H](O[C@@H]5O[C@H](CO)[C@@H](O[C@H]6O[C@@H](CN)[C@@H](O)[C@H](O)[C@H]6N)[C@H]5O)[C@@H](O)[C@H](N)C[C@@H]4N)[C@H](N)[C@@H](O)[C@@H]3O2)c1 (stereo partly shown) [Compound 5.5, 4′,6′-O-2,5-Dimethoxybenzylideneparomomycin] | 4 to 8 | >512 | ≧512 μg/ml | >512 |
| NC[C@@H]1O[C@H](O[C@H]2[C@@H](O)[C@H](O[C@@H]3[C@@H](O)[C@H](N)C[C@H](N)[C@H]3O[C@H]3O[C@@H]4CO[C@@H](c5ccc([N+](=O)[O-])cc5)O[C@H]4[C@H](O)[C@H]3N)O[C@@H]2CO)[C@H](N)[C@@H](O)[C@@H]1O [Compound 5.6, 4′,6′-O-p-Nitrobenzylideneparomomycin] | 4 | >512 | 512 µg/mL | >512 |
| CC(=O)O.CC(=O)O.CC(=O)O.NC[C@@H]1O[C@H](O[C@H]2[C@@H](O)[C@H](O[C@@H]3[C@@H](O)[C@H](N)C[C@H](N)[C@H]3O[C@H]3O[C@@H]4COC(c5cccc([N+](=O)[O-])c5)O[C@H]4[C@H](O)[C@H]3N)O[C@@H]2CO)[C@H](N)[C@@H](O)[C@@H]1O (stereo partly shown) [Compound 5.7, 4,6′-O-m-Nitrobenzylideneparomomycin triacetate] | 2 to 4 | >512 | 256 to 512 µg/mL | 256 |
| NC[C@@H]1O[C@H](O[C@H]2[C@@H](O)[C@H](O[C@@H]3[C@@H](O)[C@H](N)C[C@H](N)[C@H]3O[C@H]3O[C@@H]4CO[C@@H](c5cc(Cl)cc(Cl)c5)O[C@H]4[C@H](O)[C@H]3N)O[C@@H]2CO)[C@H](N)[C@@H](O)[C@@H]1O [Compound 5.9, 4,6′-O-3,5-Dichlorobenzylideneparomomycin] | 4 | 128 | 128 to 256 µg/mL | 128 to 256 |
| N#Cc1ccc([C@@H]2OC[C@H]3O[C@H](O[C@H]4[C@H](O[C@@H]5O[C@H](CO)[C@@H](O[C@H]6O[C@@H](CN)[C@@H](O)[C@H](O)[C@H]6N)[C@H]5O)[C@@H](O)[C@H](N)C[C@@H]4N)[C@H](N)[C@@H](O)[C@@H]3O2)cc1 [Compound 5.10, 4,6′-O-p-Cyanobenzylideneparomomycin] | 16 to 32 | >512 | >512 µg/mL | >512 |
| NC[C@@H]1O[C@H](O[C@H]2[C@@H](O)[C@H](O[C@@H]3[C@@H](O)[C@H](N)C[C@H](N)[C@H]3O[C@H]3O[C@@H]4CO[C@@H](c5ccc(-c6ccccc6)cc5)O[C@H]4[C@H](O)[C@H]3N)O[C@@H]2CO)[C@H](N)[C@@H](O)[C@@H]1O [Compound 5.11, 4′,6′-O-p-Phenylbenzylideneparomomycin] | 64 | 64 | 128 µg/mL | 64 to 128 |
| NC[C@@H]1O[C@H](O[C@H]2[C@@H](O)[C@H](O[C@@H]3[C@@H](O)[C@H](N)C[C@H](N)[C@H]3O[C@H]3O[C@@H]4CO[C@@H](c5ccc(F)cc5)O[C@H]4[C@H](O)[C@H]3N)O[C@@H]2CO)[C@H](N)[C@@H](O)[C@@H]1O [Compound 5.12, 4,6′-O-p-Fluorobenzylideneparomomycin] | 2 to 4 | >512 | >512 µg/mL | >512 |
| COc1cc(OC)cc([C@@H]2OC[C@H]3O[C@H](O[C@H]4[C@H](O[C@@H]5O[C@H](CO)[C@@H](O[C@H]6O[C@@H](CN)[C@@H](O)[C@H](O)[C@H]6N)[C@H]5O)[C@@H](O)[C@H](N)C[C@@H]4N)[C@H](N)[C@@H](O)[C@@H]3O2)c1 [Compound 5.13, 4′,6′-O-3,5-Dimethoxybenzylideneparomomycin] | 32 | >512 | >512 µg/mL | >512 |
| COc1cc([C@@H]2OC[C@H]3O[C@H](O[C@H]4[C@H](O[C@@H]5O[C@H](CO)[C@@H](O[C@H]6O[C@@H](CN)[C@@H](O)[C@H](O)[C@H]6N)[C@H]5O)[C@@H](O)[C@H](N)C[C@@H]4N)[C@H](N)[C@@H](O)[C@@H]3O2)cc(OC)c1OC [Compound 5.14, 4′,6′-O-3,4,5-Trimethoxybenzylideneparomomycin] | 32 to 64 | >512 | >512 µg/mL | >512 |
| NC[C@@H]1O[C@H](O[C@H]2[C@@H](O)[C@H](O[C@@H]3[C@@H](O)[C@H](N)C[C@H](N)[C@H]3O[C@H]3O[C@@H]4CO[C@@H](c5cccc(Cl)c5)O[C@H]4[C@H](O)[C@H]3N)O[C@@H]2CO)[C@H](N)[C@@H](O)[C@@H]1O [Compound 5.15, 4′,6′-O-m-chlorobenzylideneparomomycin] | 2 to 4 | 512 | 256 to 512 µg/mL | 512 |
